Assay results published in US11292803B2, “Bioreducible N-oxide-based probes for imaging of hypoxia” (THE BOARD OF TRUSTEES OF THE UNIVERSITY OF ILLINOIS, priority 2018, dated 2022).

Legend:
Format in all cases: physicochemical
[1] = Photophysical characterization (absorbance, emission, extinction coefficient, quantum yield); conditions: for ΦF / ε / λabs / λem: measured in CHCl3 (Table 1)
Protocol: Having established an effective synthetic route, attention was turned to the photophysical characterization of HyP-1 and red-HyP-1 (Table 1). HyP-1 has an absorbance maximum at 670 nm and corresponding emission maximum at 697 nm (FIG. 3a). The extinction coefficient (ε) and quantum yield (ΦF) were measured to be 1.5×10^4 cm^−1 M^−1 and 0.33 respectively. Red-HyP-1, on the other hand, has absorbance and emission maxima at 760 nm and 798 nm, respectively.
4-Aminoacetophenone was purchased from AK Scientific. Ethyl iodide, DIPEA, K2CO3, KOH, Na2SO4 and NH4OAc were purchased from Oakwood Chemicals. Benzaldehyde, BF3×OEt2, BIPY, DPI, DMSO, m-CPBA, nitroreductase and rat liver microsomes were purchased from Sigma Aldrich. Nitromethane was purchased from Alfa Aesar. Anaero-Indicators, AnaeroPacka anaerobic gas generators, acetonitrile, n-BuOH, CH2Cl2, EtOAc and Hexanes were purchased from Fisher Scientific. CDCl3 was purchased from Cambridge Isotopes Laboratory. Agarose LE was purchased from Gold Biotechnology. NADPH was purchased from EMD Millipore. All chemicals were used as purchased without further purification. Fluorinated ethylene propylene (FEP) tubing (wall thickness 0.01″, inner diameters 0.08″ and 0.12″) were purchased from McMaster-Carr. Thin-layer chromatography (TLC) was performed using glass-backed TLC plates coated with silica gel containing an UV254 fluorescent indicator (Macherey-Nagel). Flash chromatography was performed with 230-400 mesh silica gel P60 (SiliCycle Inc). UV-visible spectra were recorded on a Cary 60 spectrometer. Fluorescence spectra were recorded on a QuantaMaster-400 scanning spectrofluorometer using micro fluorescence quartz cuvettes (Science Outlet). NMR spectra were taken using Bruker or Varian 500 MHz spectrometers at 25° C. High-resolution mass spectra were acquired using Waters Q-Tof Ultima ESI and Waters Synapt G2-Si ESI/LC-MS spectrometers. Cellular imaging was performed using an EVOS FL cell imaging system. In vivo Fluorescence imaging was performed using an IVIS Spectrum CT live-animal imaging system (Perkin-Elmer, USA). PA imaging was performed using an Endra Nexus 128 photoacoustic tomography system (Ann Arbor, Mich., USA).

[2] = Photostability under continuous PA image acquisition; conditions: 770 nm, 1 hour
Protocol: FIG. 16. PA signal (770 nm) at the indicated time points of HyP-1 (dots) and red-HyP-1 (squares) solutions (10 μM in 0.1 M potassium phosphate buffer with 50% v/v EtOH) produced upon continuous image acquisition over the course of 1 h. Reported values represent mean PA signal observed after subtracting background signal produced from tissue-mimicking phantom.
In addition to Fe(II), the response of HyP-1 to a variety of alkali, alkaline earth and transition metals was also determined. […] To further evaluate the stability of HyP-1, a 10 μM solution of the probe was exposed to ambient light and temperature for up to 5 days. Additionally, a 10 μM solution of HyP-1 supplemented with human plasma was incubated at 37° C. for 3 hours. […] As mentioned previously, a major limitation of 2-nitroimidazole-based hypoxia probes is their susceptibility to oxygen-independent reduction via two-electron processes, such as by bacterial nitroreductases. […] Finally, the photostability of both HyP-1 and red-HyP-1 was evaluated via continuous PA image acquisition at 770 nm over the course of 1 hour.

[3] = PA imaging of compound solutions in tissue-mimicking phantoms; conditions: solutions in tissue-mimicking phantom
Protocol: FIG. 3. Photophysical characterization of HyP-1 and red-HyP-1. (a) Normalized absorbance (dashed) and emission (solid) spectra of HyP-1 (left) and red-HyP-1 (right). (b) PA spectra of HyP-1 and red-HyP-1. PA images of HyP-1 and red-HyP-1 solutions (10 μM in 0.1 M potassium phosphate buffer (pH 7.4) with 50% EtOH co-solvent) in tissue-mimicking phantoms were obtained, and the mean PA signal corresponding to each compound was plotted as a function of wavelength. Results are presented as mean±SD (n=3). (c) PA signal corresponding to various concentrations of red-HyP-1. […]
The significant change in the absorbance profiles of these compounds can be attributed to disruption of the electron donating capability of the aniline in its N-oxide form. This chemical modification is akin to protonation of the aniline, which has been previously shown to result in similar shifts in the absorbance. The 90 nm separation in absorbance is essential to the probes design as it allows us to readily distinguish each species by selective excitation and subsequent detection using both PA and fluorescence imaging. […] Additionally, because HyP-1 and red-HyP-1 have spectrally resolved emission profiles, ratiometric imaging can be performed by determining the ratio of their fluorescence emission intensities. […]

[4] = Photophysical characterization (absorbance, emission, extinction coefficient, quantum yield); conditions: Table 2

Compound | absorbance maximum [1] | decrease in quantum yield on conversion of HyP-1 to red-HyP-1 [1] | emission maximum [1] | extinction coefficient (ε) [1] | increase in extinction coefficient on conversion of HyP-1 to red-HyP-1 [1] | quantum yield (ΦF) [1] | shift in absorbance on conversion of HyP-1 to red-HyP-1 [1] | ΦF [1] | ε [1] | λabs [1] | λem [1] | PA intensity during continuous acquisition (photostability) [2] | PA signal at 770 nm [3] | Φ [4] | ε [4] | λabs [4]
CC[N+]([O-])(CC)c1ccc(-c2cc(-c3ccccc3)c3n2[B-](F)(F)[N+]2=C(c4ccc(OC)cc4)C=C(c4ccccc4)C2=N3)cc1 [HyP-1, 4-(5,5-difluoro-7-(4-methoxyphenyl)-1,9-diphenyl-5H-5λ^4,6λ^4-dipyrrolo[1,2-c:2′,1′-f][1,3,5,2]triazaborinin-3-yl)-N,N-diethylaniline oxide] | 670 nm | 2.2 fold | 697 nm | 15000 cm⁻¹ M⁻¹ | 3.6 fold | 0.33 | 90 nm | 0.33 | 1.4 × 10^4 M^−1 cm^1 | 670 nm | 697 nm | remained unchanged | no signal | 0.33 | 1.5 × 10^4 M^−1 · cm^1 | 670 nm
CCN(CC)c1ccc(-c2cc(-c3ccccc3)c3n2[B-](F)(F)[N+]2=C(c4ccc(OC)cc4)C=C(c4ccccc4)C2=N3)cc1 [Red-HyP-1, 4-(5,5-difluoro-7-(4-methoxyphenyl)-1,9-diphenyl-5H-5λ^4,6λ^4-dipyrrolo[1,2-c:2′,1′-f][1,3,5,2]triazaborinin-3-yl)-N,N-diethylaniline] | 760 nm | – | 798 nm | 54000 cm⁻¹ M⁻¹ | – | 0.15 | – | 0.15 | 5.4 × 10^4 M^−1 cm^1 | 760 nm | 798 nm | remained unchanged | strong PA signal | 0.11 | 5.4 × 10^4 M^−1 · cm^1 | 760 nm
